In test [1] the target is T1, dPHD-HD1 complex (Drosophila Pygo PHD with Lgs HD1) (Drosophila melanogaster, UniProt Q961D9+Q9V9W8).
T1 construct: Drosophila Pygo PHD (amino acids 747–808); GST (N, cleaved yes); made in house; host or cells: E. coli BL21-CodonPlus(DE3)-RIL
T1 sequence (Q9V9W8 747-808): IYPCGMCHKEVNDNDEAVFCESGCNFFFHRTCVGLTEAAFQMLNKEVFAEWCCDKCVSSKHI
T1 sequence (Q961D9 316-350 partner limits assumed): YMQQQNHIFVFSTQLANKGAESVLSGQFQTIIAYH
As to the kind of experiment: ITC, histone tail peptides with Drosophila PHD-HD1 complex. In kind it is binding. The procedure: (§1) ITC was carried out using a VP-ITC Microcal calorimeter (Microcal, Northhampton, MA, USA). Peptides were lyophilized against freshly prepared 20mM ammonium bicarbonate solution and resuspended in the ITC dialysis buffer (25mM Tris pH 8.0, 100mM NaCl and 2mM β-mercaptoethanol). Experiments were performed at 25 °C. During titration, 4-12µl aliquots of 0.5-1.0mM peptide solution was injected into a solution of 50µM protein at time intervals of 5 min. ITC data were corrected for the heat of dilution and analyzed using Origin (version 5.0) provided by the manufacturer. […]
(Isothermal titration calorimetry measures the heat released or taken up as one component is titrated into another.)

The test system of test [2] is PHD from hPygo1 (GST-hPHD). In words: In vitro pull-down, MBP-tagged HD1 deletions with GST-hPHD. It is filed as binding, human. The conditions noted are these: systematic N- and C-terminal deletions of HD1, MBP-tagged. The procedure: Figure S2. Deletion Analysis of hBCL9 HD1 and Binding to hPygo1 PHD
(A) Systematic N- and C-terminal deletions of HD1 from hBCL9 (underlined), individually and combined (bottom); sequences between, and including, red (marking deletion end-points) were tested for their in vitro binding to PHD from hPygo1 (B), as summarized on […]
(B) In vitro pull-down assays, to test binding between MBP-tagged HD1 deletions and GST-hPHD; positive controls, Lgs HD1, hBCL9 AKV-TER; negative controls, GST, MBP-ACTN2; IP, input (5%); G, GST; PHD, GST-hPHD. […]

Test [3] deals with T2, PHD finger from hPygo1 (hPHD) (Homo sapiens, UniProt Q9Y3Y4).
T2 construct: hPygo1 PHD (amino acids 333–402); GST (N, cleaved yes); made in house; host or cells: E. coli BL21-CodonPlus(DE3)-RIL
T2 sequence (Q9Y3Y4 333-402): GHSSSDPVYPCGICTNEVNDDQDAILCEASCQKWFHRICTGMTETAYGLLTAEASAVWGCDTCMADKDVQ
As to the kind of experiment: ITC, histone tail peptides with free hPHD. It is filed as binding. The settings on record: 15-mer peptides, ITC at 25 °C, pH 8.0. The protocol: Free PHD fingers were purified similarly to the PHD-HD1 complexes, and purity was assessed by SDS-PAGE prior to use for ITC.
as §1

In test [4] the target is T3, hPHD-HD1 complex (hPygo1 PHD with hBCL9 HD1) (Homo sapiens, UniProt O00512+Q9Y3Y4).
T3 construct: hPygo1 PHD (amino acids 333–402); GST (N, cleaved yes); made in house; host or cells: E. coli BL21-CodonPlus(DE3)-RIL
T3 sequence (Q9Y3Y4 333-402): T2 sequence (Q9Y3Y4 333-402)
T3 sequence (O00512 177-205 partner limits assumed): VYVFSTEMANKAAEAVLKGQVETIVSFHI
As to the kind of experiment: ITC, histone tail peptides with human PHD-HD1 complex. It is filed as binding. The conditions noted are these: ITC at 25 °C. The protocol:
as §1

For orientation: Kd means the equilibrium constant for the complex coming apart.

Read-outs that look alike come from different tables or passages of the source.

Regarding `C[C@H](N)C(=O)N[C@@H](CCCNC(=N)N)C(=O)N[C@H](C(=O)N[C@@H](CCCC[N+](C)(C)C)C(=O)N[C@@H](CCC(N)=O)C(=O)N[C@H](C(=O)N[C@@H](C)C(=O)N[C@@H](CCCNC(=N)N)C(=O)N[C@@H](CCCCN)C(=O)N[C@@H](CO)C(=O)N[C@H](C(=O)NCC(=O)NCC(=O)N[C@@H](CCCCN)C(=O)N[C@@H](C)C(=O)O)[C@@H](C)O)[C@@H](C)O)[C@@H](C)O` [15-mer H3K4me3], in test [1], the Kd came out at 23 µM.

For “V177-I205: minimal PHD-interacting fragment of HD1 from hBCL9 (VYVFSTEMANKAAEAVLKGQVETIVSFHI; HD1; UniProt O00512 177-205, looked up, fragment)”, the “PHD binding of HD1 fragment (in words)” value in test [2] is reported as “minimal PHD-interacting fragment”.

Regarding `C[C@H](N)C(=O)N[C@@H](CCCNC(=N)N)C(=O)N[C@H](C(=O)N[C@@H](CCCCN(C)C)C(=O)N[C@@H](CCC(N)=O)C(=O)N[C@H](C(=O)N[C@@H](C)C(=O)N[C@@H](CCCNC(=N)N)C(=O)N[C@@H](CCCCN)C(=O)N[C@@H](CO)C(=O)N[C@H](C(=O)NCC(=O)NCC(=O)N[C@@H](CCCCN)C(=O)N[C@@H](C)C(=O)O)[C@@H](C)O)[C@@H](C)O)[C@@H](C)O` [15-mer H3K4me2], the equilibrium dissociation constant (Kd) in test [1] (Figure 3A panel, dPHD-HD1, 15-mer peptide, ITC at 25 °C, 100 mM NaCl, 25 mM Tris-HCl pH 8.0, 10 μM ZnCl2, 2 mM β-mercaptoethanol, 50µM protein, 0.5-1.0mM peptide, one-site model, ± fitting error, read-out: Kd) turned out to be 12.6 ± 0.5 µM; in test [3], 2.4 µM; in test [4] (Figure 3A panel, hPHD-HD1, 15-mer peptides, 100 mM NaCl, 25 mM Tris-HCl pH 8.0, 10 μM ZnCl2, 2 mM β-mercaptoethanol, 50µM protein, 0.5-1.0mM peptide, one-site model, ± fitting error, read-out: Kd), 0.93 ± 0.01 µM.

With “9-mer H3K4me2 A1>G: 9-mer whose A1 was substituted with a glycine (A1 > G) (GRTKQTARK; dimethyl-lysine at K4)”, the “binding (in words)” value in test [4] (human PHD-HD1 complex, pH 8.0) is on record as “reduced to almost background levels”.

With `C[C@H](N)C(=O)N[C@@H](CCCNC(=N)N)C(=O)N[C@H](C(=O)N[C@@H](CCCCN(C)C)C(=O)N[C@@H](CCC(N)=O)C(=O)N[C@H](C(=O)N[C@@H](C)C(=O)N[C@@H](CCCNC(=N)N)C(=O)N[C@@H](CCCCN)C(=O)O)[C@@H](C)O)[C@@H](C)O` [9-mer H3K4me2], the dissociation constant (Kd) in test [4] (Figure 3B, hPHD-HD1, pH 8.0, 100 mM NaCl, 25 mM Tris-HCl, 10 μM ZnCl2, 2 mM β-mercaptoethanol, 50µM protein, 0.5-1.0mM peptide, one-site model, ± fitting error, read-out: Binding constant (Kd)) worked out at 11.4 ± 1.1 µM.

Consider `CNCCCC[C@H](NC(=O)[C@@H](NC(=O)[C@H](CCCNC(=N)N)NC(=O)[C@H](C)N)[C@@H](C)O)C(=O)N[C@@H](CCC(N)=O)C(=O)N[C@H](C(=O)N[C@@H](C)C(=O)N[C@@H](CCCNC(=N)N)C(=O)N[C@@H](CCCCN)C(=O)N[C@@H](CO)C(=O)N[C@H](C(=O)NCC(=O)NCC(=O)N[C@@H](CCCCN)C(=O)N[C@@H](C)C(=O)O)[C@@H](C)O)[C@@H](C)O` [15-mer H3K4me1], for which the equilibrium dissociation constant (Kd) in test [1] (Figure 3B, dPHD-HD1, ITC at 25 °C, pH 8.0, 100 mM NaCl, 25 mM Tris-HCl, 10 μM ZnCl2, 2 mM β-mercaptoethanol, 50µM protein, 0.5-1.0mM peptide, one-site model, ± fitting error, read-out: Binding constant (Kd)) was 21.5 ± 0.3 µM; in test [3], 9 µM; in test [4] (human PHD-HD1 complex, pH 8.0, read-out: Kd) it was 2.9 µM.

Consider “9-mer H3K4me2 ΔA1: truncated H3K4me2 peptide spanning R2-K9 (without A1, ΔA1) (RTKQTARK; dimethyl-lysine at K4)”, for which the “binding (in words)” value in test [4] (human PHD-HD1 complex, pH 8.0) is recorded as “No binding was detectable”.

These data come from article PMC2726290, “Decoding of Methylated Histone H3 Tail by the Pygo-BCL9 Wnt Signaling Complex” (Molecular Cell, 2008).
